Common to all, as to experiment: NCI tumour cell line growth inhibition, 48 h
Experiment [1] relates to K-562 leukemia.
In experiment [2] the test system is HCT-116 colon.
Experiment [3] concerns NCI-H226 lung.
The test system of experiment [4] is HCT-15 colon.
Experiment [5] concerns SK-MEL-5 melanoma.
Experiment [6] concerns SK-MEL-2 melanoma.
The test system of experiment [7] is HOP-62 NSCLC.
The test system of experiment [8] is SF-539 CNS.
Experiment [9] concerns RXF 393 renal.
In experiment [10] the test system is COLO 205 colon.

Values joined by “and” are separate entries in the source; they are usually repeats but may differ in a detail not shown here. Identical values can stand only once.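 In this assay, cells in 96-well plates receive the compound at five concentrations for 48 hours. Endpoints are linearly interpolated between the surrounding concentrations. Abbreviation: GI50, concentration required for 50% inhibition of growth. TGI: total growth inhibition.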 Some results are limits rather than exact numbers.

In the case of `CCCCCCCCCCCCCC(=O)OCC1OC(n2cc(F)c(=O)[nH]c2=O)C(NC(=O)OCc2ccccc2)C(OC(=O)CCCCCCCCCCCCC)C1O` (centres undefined), the TGI in experiment [1], in experiment [2], in experiment [3], in experiment [4], in [5] and in experiment [6] was greater than 100 µM each time. For the same compound, the TGI in experiment [7], in experiment [8], in [9] and in [10] was greater than 100 µM each time.

`N#Cc1c2c(c(N=P(c3ccccc3)(c3ccccc3)c3ccccc3)n3c1nc1ccccc13)CCCC2`: the TGI in [1] was 38.2 µM; in [2], greater than 100 µM; in experiment [3], 22.4 µM; in experiment [4], greater than 100 µM; in experiment [5], 27.3 µM; in experiment [6] it was 70.4 µM. For the same compound, the TGI is 71.5 µM in [7], greater than 100 µM in [8], 98.5 µM in experiment [9] and 24.8 µM in [10].

For `O=[N+]([O-])c1ccccc1N/N=C\c1c[nH]c2ccccc12`, the GI50 in [1] is 4.53 µM; in experiment [2], 13.7 µM; in experiment [3] it was 12.6 µM; in [4], 5.68 µM; in experiment [5], 71.4 µM; in [6], 26.4 µM. Moreover, the GI50 in [7] is 13.8 µM; in experiment [8], 12.4 µM; in experiment [9] it was 10.7 µM; in experiment [10] it was 24.5 µM. The TGI in [1], in experiment [2], in experiment [3], in experiment [4], in experiment [5] and in [6] was greater than 100 µM throughout. Also, the TGI in experiment [7] is 31.1 µM; in [8] it was 31.2 µM; in experiment [9], 57.8 µM; in [10] it was greater than 100 µM.

Consider `CC1=CC(=C(c2ccc(N)cc2)c2ccc(N)cc2)C=CC1=N`, for which the GI50 in experiment [1] was 0.369 µM; in [2], 0.457 µM and 2.8 µM; in experiment [3], 2.16 µM and 7.35 µM; in [4], 4.61 µM and 14.5 µM; in experiment [5], 0.928 µM; in experiment [6], 2.32 µM and 2.71 µM. The GI50 is 0.486 µM in experiment [7]; 0.632 µM and 2.32 µM in [8]; 3.17 µM and 5.67 µM in experiment [9]; 0.373 µM and 1.77 µM in [10]. Also, the TGI was 4.15 µM and 25.7 µM and 9.14 µM in experiment [2]; 16.5 µM and 19.6 µM and 46.6 µM in experiment [3]; 45.1 µM and > 74.7 µM and > 100 µM in [4]; 2.3 µM and 5.45 µM and 3.41 µM in [5]; 7.73 µM and 12.2 µM and 5.84 µM in experiment [6]; 1.98 µM and 7.16 µM in [7]. For the same compound, the TGI is 8.36 µM and 9.18 µM and 16.9 µM in experiment [8]; 12.2 µM and 34.5 µM and 22.9 µM in experiment [9]; 1.6 µM and 4.86 µM and 3.38 µM in experiment [10].

Take `Cn1cc(C2=C(c3cn(C)c4c([N+](=O)[O-])cccc34)C(=O)NC2=O)c2ccccc21`: the GI50 in [1], in experiment [2], in [3], in experiment [4], in experiment [5] and in experiment [6] was greater than 25 µM throughout. The GI50 in experiment [7], in [8], in experiment [9] and in [10] was greater than 25 µM throughout. Besides, the TGI in [1], in experiment [2], in experiment [3], in experiment [4], in experiment [5] and in experiment [6] was greater than 25 µM each time. Also, the TGI in experiment [7], in experiment [8], in experiment [9] and in [10] was greater than 25 µM throughout.

For `CC(=O)OC1CCCn2c1nc1c2C(=O)C(C)=C(N2CC2)C1=O` (centres undefined), the TGI in experiment [1] was greater than 35.2 µM; in experiment [2] it was 1.96 µM; in experiment [3], 0.944 µM; in [4] it was 0.726 µM; in experiment [5] it was 0.351 µM; in [6], 0.693 µM. In addition, the TGI in experiment [7] was 0.625 µM; in experiment [8], 1.43 µM; in [9] it was 0.768 µM; in experiment [10], 1.2 µM.

On to `CCN(CC)CCOc1ccccc1/C=C/c1noc2ccccc12`, for which the TGI in experiment [1] was greater than 100 µM; in experiment [2], 19.2 µM; in experiment [3], 30.5 µM; in experiment [4], 22.4 µM; in experiment [5], 16.5 µM; in experiment [6], 16.7 µM. The TGI in experiment [7] came out at 31.3 µM; in experiment [8], 31.8 µM; in experiment [9], 9.97 µM; in experiment [10], 24.1 µM.

For `Nc1nc(OCc2cc(Br)cs2)c2[nH]cnc2n1`, the GI50 in experiment [1] was 29.7 µM; in experiment [2], 19.9 µM; in [3], 24.6 µM; in experiment [4], 18.4 µM; in experiment [5] it was 15.9 µM; in [6], 28.8 µM. Also, the GI50 in experiment [7] was 31.4 µM; in [8], 18.2 µM; in experiment [9], 14 µM; in experiment [10], 34 µM. In addition, the TGI in experiment [1] is greater than 100 µM; in experiment [2], greater than 100 µM; in experiment [3], greater than 100 µM; in experiment [4], greater than 100 µM; in [5], 39.6 µM; in [6], 81.3 µM. Also, the TGI was greater than 100 µM in experiment [7], 62.6 µM in experiment [8], 55.5 µM in experiment [9] and greater than 100 µM in experiment [10].

Take `O=C(c1ccccc1)c1ccc(Oc2ccc([N+](=O)[O-])cc2[N+](=O)[O-])cc1`: the GI50 in [1] is 2.63 µM; in [2], 3.29 µM; in experiment [3], 2.52 µM; in [4], 3.48 µM; in experiment [5], 2.02 µM; in [6] it was 4.57 µM. For the same compound, the GI50 is 7.81 µM in experiment [7], 2.7 µM in [8], 3.32 µM in experiment [9] and 2.4 µM in experiment [10]. Moreover, the TGI in experiment [1] was greater than 100 µM; in experiment [2], 26.2 µM; in [3], 8.57 µM; in [4] it was greater than 100 µM; in experiment [5] it was 4.42 µM; in experiment [6], 22.6 µM. In addition, the TGI in experiment [7] was found to be 43.1 µM; in [8] it was 7.32 µM; in experiment [9], 11.8 µM; in experiment [10], 5.46 µM.

Regarding `O=CNc1ncn[nH]1`, the TGI in [1], in experiment [2], in experiment [3], in experiment [4], in [5] and in experiment [6] was greater than 100 µM each time. For the same compound, the TGI in experiment [7], in [8], in experiment [9] and in experiment [10] was greater than 100 µM in each case.

For the compound `CS(=O)(=O)Nc1ccc(-c2cc(-c3ccccc3)cc(C(N)=O)c2N)cc1`, the GI50 in experiment [1] is 15.8 µM; in experiment [2] it was greater than 25 µM; in experiment [3] it was greater than 25 µM; in experiment [4] it was greater than 22.2 µM; in experiment [5], 15.6 µM; in experiment [6], greater than 25 µM. Further, the GI50 in experiment [7], in experiment [8], in experiment [9] and in [10] was greater than 25 µM each time. In addition, the TGI in [1], in experiment [2], in [3], in experiment [4], in [5] and in experiment [6] was greater than 25 µM in each case. Besides, the TGI in experiment [7], in experiment [8], in [9] and in experiment [10] was greater than 25 µM throughout.

For `Cc1ccc(S(=O)(=O)N2CCSCCN(S(=O)(=O)c3ccc(C)cc3)CCN(S(=O)(=O)c3ccc(C)cc3)CC2)cc1`, the TGI was greater than 100 µM in [1]; greater than 100 µM in experiment [2]; greater than 100 µM in experiment [3]; greater than 100 µM in experiment [5]; 79.9 µM in experiment [6]; 69 µM in experiment [7]. In addition, the values for the TGI in experiment [8], in [9] and in experiment [10] were 56.8 µM, greater than 100 µM and greater than 100 µM, respectively.

Take `O=C1Nc2c(C(F)(F)F)cccc2[C@@]1(c1ccc(O)cc1)c1ccc(OC(F)(F)F)cc1`: the GI50 in [1] is 0.183 µM; in experiment [2], less than 0.0172 µM; in [3] it was 0.0108 µM; in experiment [5] it was 0.2 µM; in [6] it was 0.0194 µM; in experiment [7], 0.0226 µM. In addition, the GI50 in [8] is 0.0161 µM; in [9], less than 0.0107 µM; in experiment [10], less than 0.01 µM. The TGI came out at 20.7 µM in experiment [1]; 0.0273 µM in experiment [3]; 16.6 µM in [5]; 0.0515 µM in experiment [6]; 0.0661 µM in [7]; 0.0446 µM in [8]. In addition, the TGI in experiment [9] was less than 0.0232 µM; in experiment [10], less than 0.01 µM.

With `O=C(O)C[C@H]1CCCCC12CCOC2=O` (some centres undefined), the TGI in [1], in [2], in experiment [3], in experiment [5], in experiment [6] and in experiment [7] was greater than 100 µM throughout. Further, the TGI in [8], in experiment [9] and in [10] was greater than 100 µM each time.

The record behind these values is PubChem BioAssay (NCI).
